Measured values: paper PMC9673787, “1,2,3-Benzoxathiazine-2,2-dioxides – effective inhibitors of human carbonic anhydrases” (Journal of Enzyme Inhibition and Medicinal Chemistry, 2022)
Read-outs that look alike come from different tables or passages of the source.

Assays:
hCA I = target: T1, hCA I (Homo sapiens, UniProt P00915); assay: stopped flow CO2 hydrase assay, hCA I; format: biochemical; details: 15 min incubation; for Ki: recombinant enzyme, mean from three assays, errors ± 5–10%
T1 construct: made in house
Procedure: (§1) An applied photophysics stopped-flow instrument has been used for assaying the CA catalysed CO2 hydration activity.[32]
(§2) Phenol red (at a concentration of 0.2 mM) was used as indicator, working at the absorbance maximum of 557 nm, with 20 mM Hepes (pH 7.5), and 20 mM Na2SO4 (for maintaining constant the ionic strength), following the initial rates of the CA-catalysed CO2 hydration reaction for a period of 10 − 100 s. The CO2 concentrations ranged from 1.7 to 17 mM for the determination of the kinetic parameters and inhibition constants. […] The uncatalysed rates were determined in the same manner and subtracted from the total observed rates. Stock solutions of inhibitor (0.1 mM) were prepared in distilled – deionised water, and dilutions up to 0.01 nM were done thereafter with the assay buffer. Inhibitor and enzyme solutions were preincubated together for 15 min at room temperature prior to assay in order to allow for the formation of the E – I complex. […] The inhibition constants were obtained by nonlinear least-squares methods using PRISM 3 and the Cheng – Prusoff equation, as reported earlier[15]^,[33–37]^, and represent the mean from at least three different determinations. All CA isoforms were recombinant ones obtained in-house as reported earlier[12]^,[18]^,[38–45].

hCA XII = target: T2, hCA XII (Homo sapiens, UniProt O43570); assay: stopped flow CO2 hydrase assay, hCA XII; format: biochemical; details: 15 min incubation; for Ki: recombinant enzyme, mean from three assays, errors ± 5–10%
T2 construct: made in house
Procedure: as §1, §2

hCA II = target: T3, hCA II (Homo sapiens, UniProt P00918); assay: stopped flow CO2 hydrase assay, hCA II; format: biochemical; details: 15 min incubation
T3 construct: made in house
Procedure: as §1, §2

hCA IX = target: T4, hCA IX (Homo sapiens, UniProt Q16790); assay: stopped flow CO2 hydrase assay, hCA IX; format: biochemical; details: recombinant enzyme, 15 min incubation, mean from three assays, errors ± 5–10%
T4 construct: made in house
Procedure: as §1, §2

[1] = recombinant enzyme, mean from three assays, errors ± 5–10%, read-out: KI (nM) hCA II

T2 sequence (O43570 25-354): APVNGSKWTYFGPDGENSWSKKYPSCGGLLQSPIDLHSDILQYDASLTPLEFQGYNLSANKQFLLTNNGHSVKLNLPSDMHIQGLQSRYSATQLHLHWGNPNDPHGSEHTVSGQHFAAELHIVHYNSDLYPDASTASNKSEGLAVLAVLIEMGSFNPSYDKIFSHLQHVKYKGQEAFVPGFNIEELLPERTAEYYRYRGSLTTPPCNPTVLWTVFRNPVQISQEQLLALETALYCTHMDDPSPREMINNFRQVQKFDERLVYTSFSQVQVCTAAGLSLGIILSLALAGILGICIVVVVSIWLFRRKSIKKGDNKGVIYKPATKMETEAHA
T1 sequence (P00915 whole entry): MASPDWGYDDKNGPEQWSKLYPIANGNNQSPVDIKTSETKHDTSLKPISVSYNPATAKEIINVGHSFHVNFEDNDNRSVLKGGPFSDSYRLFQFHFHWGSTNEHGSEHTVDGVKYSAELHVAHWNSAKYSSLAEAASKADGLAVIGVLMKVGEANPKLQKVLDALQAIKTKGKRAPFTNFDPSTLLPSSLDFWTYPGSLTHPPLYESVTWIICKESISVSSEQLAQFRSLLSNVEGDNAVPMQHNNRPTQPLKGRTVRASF

COc1ccc(-c2ccc3c(c2)OS(=O)(=O)N=C3)cc1 [5h, 7-(4-Methoxyphenyl)-1,2,3-benzoxathiazine 2,2-dioxide]
melting point: 181 to 182 °C | Ki (hCA I): 30300 nM | Ki (hCA XII): 36.4 nM | Ki (hCA II; [1]): 14.3 nM | Ki (hCA IX): 45.2 nM

Cc1ccc2c(c1)C=NS(=O)(=O)O2 [2a, 6-Methyl-1,2,3-benzoxathiazine 2,2-dioxide]
Ki (hCA I): 25700 nM | Ki (hCA XII): 98.2 nM | Ki (hCA II; [1]): 116 nM | Ki (hCA IX): 72 nM

O=S1(=O)N=Cc2cccc(Br)c2O1 [2k, 8-Bromo-1,2,3-benzoxathiazine 2,2-dioxide]
Ki (hCA I): 788 nM | Ki (hCA XII): 86.3 nM | Ki (hCA II; [1]): 113 nM | Ki (hCA IX): 41.8 nM

O=S1(=O)N=Cc2cccc(-c3ccc(Cl)c(Cl)c3)c2O1 [5m, 8-(3,4-Dichlorophenyl)-1,2,3-benzoxathiazine 2,2-dioxide]
melting point: 165 to 166 °C | Ki (hCA I): 6710 nM | Ki (hCA XII): 4.8 nM | Ki (hCA II; [1]): 9.5 nM | Ki (hCA IX): 40.8 nM

O=S1(=O)N=Cc2cccc(F)c2O1 [2j, 8-Fluoro-1,2,3-benzoxathiazine 2,2-dioxide]
Ki (hCA I): 466 nM | Ki (hCA XII): 34.7 nM | Ki (hCA II; [1]): 89.2 nM | Ki (hCA IX): 65.9 nM

COc1ccc(-c2cccc3c2OS(=O)(=O)N=C3)cc1 [5l, 8-(4-Methoxyphenyl)-1,2,3-benzoxathiazine 2,2-dioxide]
melting point: 133 to 134 °C | Ki (hCA I): 4260 nM | Ki (hCA XII): 7.3 nM | Ki (hCA II; [1]): 12.3 nM | Ki (hCA IX): 62.7 nM

COc1ccc(-c2cccc3c2C=NS(=O)(=O)O3)cc1 [5c, 5–(4-Methoxyphenyl)-1,2,3-benzoxathiazine 2,2-dioxide]
melting point: 177 to 178 °C | Ki (hCA I): > 100000 nM | Ki (hCA XII): 18000 nM | Ki (hCA II; [1]): 36900 nM | Ki (hCA IX): 10900 nM

O=S1(=O)N=Cc2cccc(-c3ccccc3)c2O1 [5j, 8-Phenyl-1,2,3-benzoxathiazine 2,2-dioxide]
melting point: 164 to 165 °C | Ki (hCA I): 668 nM | Ki (hCA XII): 61.8 nM | Ki (hCA II; [1]): 0.5 nM | Ki (hCA IX): 49.1 nM

COc1ccc2c(c1)C=NS(=O)(=O)O2 [2b, 6-Methoxy-1,2,3-benzoxathiazine 2,2-dioxide]
inhibition of hCA I in words (hCA I): did not inhibit | Ki (hCA I): > 100000 nM | Ki (hCA XII): 75.1 nM | Ki (hCA II; [1]): 168 nM | Ki (hCA IX): 62.8 nM

O=S1(=O)N=Cc2cc(F)ccc2O1 [2c, 6-Fluoro-1,2,3-benzoxathiazine 2,2-dioxide]
Ki (hCA I): 3320 nM | Ki (hCA XII): 121 nM | Ki (hCA II; [1]): 71.8 nM | Ki (hCA IX): 58.3 nM

O=S1(=O)N=Cc2cccc(-c3ccc(F)cc3)c2O1 [5k, 8-(4-Fluorophenyl)-1,2,3-benzoxathiazine 2,2-dioxide]
melting point: 123 to 124 °C | Ki (hCA I): 1850 nM | Ki (hCA XII): 12.4 nM | Ki (hCA II; [1]): 5.6 nM | Ki (hCA IX): 32.3 nM

O=S1(=O)N=Cc2c(cccc2-c2ccc(F)cc2)O1 [5b, 5-(4-Fluorophenyl)-1,2,3-benzoxathiazine 2,2-dioxide]
Ki (hCA I): > 100000 nM | Ki (hCA XII): 7460 nM | Ki (hCA II; [1]): 14800 nM | Ki (hCA IX): 4140 nM

O=S1(=O)N=Cc2ccc(-c3ccccc3)cc2O1 [5f, 7-Phenyl-1,2,3-benzoxathiazine 2,2-dioxide]
melting point: 171 to 172 °C | Ki (hCA I): 5680 nM | Ki (hCA XII): 78.3 nM | Ki (hCA II; [1]): 7.7 nM | Ki (hCA IX): 28.6 nM

O=S1(=O)N=Cc2ccc(-c3ccc(F)cc3)cc2O1 [5g, 7-(4-Fluorophenyl)-1,2,3-benzoxathiazine 2,2-dioxide]
melting point: 164 to 165 °C | Ki (hCA I): 15200 nM | Ki (hCA XII): 8.2 nM | Ki (hCA II; [1]): 2.1 nM | Ki (hCA IX): 69.8 nM

CCOC(=O)c1ccc(-c2cccc3c2C=NS(=O)(=O)O3)cc1 [5e, Ethyl 4-(2,2-dioxido-1,2,3-benzoxathiazin-5-yl)benzoate]
Ki (hCA I): > 100000 nM | inhibition of hCA XII in words (hCA XII): did not exhibit any inhibitory properties | Ki (hCA XII): > 100000 nM | inhibition of hCA II in words (hCA II): not inhibited | Ki (hCA II; [1]): > 100000 nM | Ki (hCA IX): > 100000 nM

COc1cccc2c1OS(=O)(=O)N=C2 [2i, 8-Methoxy-1,2,3-benzoxathiazine 2,2-dioxide]
Ki (hCA I): 1520 nM | Ki (hCA XII): 63.4 nM | Ki (hCA II; [1]): 39 nM | Ki (hCA IX): 73.6 nM

O=S1(=O)N=Cc2c(cccc2-c2ccccc2)O1 [5a, 5-Phenyl-1,2,3-benzoxathiazine 2,2-dioxide]
melting point: 156 to 157 °C | Ki (hCA I): > 100000 nM | Ki (hCA XII): 12600 nM | Ki (hCA II; [1]): 9870 nM | Ki (hCA IX): 5250 nM

COc1ccc2c(c1)OS(=O)(=O)N=C2 [2f, 7-Methoxy-1,2,3-benzoxathiazine 2,2-dioxide]
Ki (hCA I): 987 nM | Ki (hCA XII): 83.1 nM | Ki (hCA II; [1]): 55.2 nM | Ki (hCA IX): 39.7 nM

O=S1(=O)N=Cc2ccc(Br)cc2O1 [2h, 7-Bromo-1,2,3-benzoxathiazine 2,2-dioxide]
Ki (hCA I): 46500 nM | Ki (hCA XII): 70.1 nM | Ki (hCA II; [1]): 45.1 nM | Ki (hCA IX): 22.3 nM

O=S1(=O)N=Cc2c(cccc2-c2ccc(Cl)c(Cl)c2)O1 [5d, 5-(3,4-Dichlorophenyl)-1,2,3-benzoxathiazine 2,2-dioxide]
melting point: 230 to 231 °C | Ki (hCA I): > 100000 nM | Ki (hCA XII): 45300 nM | inhibition of hCA II in words (hCA II): not inhibited | Ki (hCA II; [1]): > 100000 nM | Ki (hCA IX): > 100000 nM

CCOC(=O)c1ccc(-c2ccc3c(c2)OS(=O)(=O)N=C3)cc1 [5i, Ethyl 4-(2,2-dioxido-1,2,3-benzoxathiazin-7-yl)benzoate]
melting point: 204 to 205 °C | Ki (hCA I): 356 nM | Ki (hCA XII): 90.5 nM | Ki (hCA II; [1]): 0.8 nM | Ki (hCA IX): 38 nM

Cc1ccc2c(c1)OS(=O)(=O)N=C2 [2e, 7-Methyl-1,2,3-benzoxathiazine 2,2-dioxide]
Ki (hCA I): 657 nM | Ki (hCA XII): 58 nM | Ki (hCA II; [1]): 78.9 nM | Ki (hCA IX): 53.1 nM

O=S1(=O)N=Cc2cc(Br)ccc2O1 [2d, 6-Bromo-1,2,3-benzoxathiazine 2,2-dioxide]
inhibition of hCA I in words (hCA I): did not inhibit | Ki (hCA I): > 100000 nM | Ki (hCA XII): 186 nM | Ki (hCA II; rounded, read-out: Ki hCA II): 8300 nM | Ki (hCA II; [1]): 8320 nM | Ki (hCA IX): 27.4 nM

O=S1(=O)N=Cc2ccc(F)cc2O1 [2g, 7-Fluoro-1,2,3-benzoxathiazine 2,2-dioxide]
Ki (hCA I): 448 nM | Ki (hCA XII): 112 nM | Ki (hCA II; [1]): 86.7 nM | Ki (hCA IX): 55.4 nM
